As a reminder, the viability is a read-out of living cells in per cent, often relative to untreated cells.

The text below walks through data of publication PMC12040169 (PLOS Biology, 2025).

A short description of the data set: in vitro. The settings on record: human, hela cells, % viability.

On to `CC(=O)Nc1ccc(S(=O)(=O)N2CCN(S(=O)(=O)N(C)C)CC2)cc1` [CBK266545], for which the viability at 28.5 h, 10 µM is 95.9%.

`O=C(Oc1ccc(F)cc1C(=O)/C=C/c1ccccc1F)c1cccc([N+](=O)[O-])c1` [CBK264859]: the viability at 28.5 h, 10 µM was 86.9%. For the compound `Cc1ccnc(NCC2CCN(Cc3cc(=O)n4ccccc4n3)C2)c1` (stereo not drawn) [CBK306003], the viability at 28.5 h, 10 µM is 97.3%. Consider `Cc1cc(C)n(CC(=O)NCC(c2c(F)cccc2F)N(C)C)n1` (stereo not drawn) [CBK305510], for which the viability at 28.5 h, 10 µM was 96.7%.

As for `Cc1ccn(CCNC(=O)Cc2coc3cc(C)c(C)cc23)n1` [CBK282578], the viability at 28.5 h, 10 µM turned out to be 107%.

`CCn1cc(CN2CCCN(C(=O)c3cn4ccccc4n3)CC2)cn1` [CBK304784]: the viability at 28.5 h, 10 µM was found to be 98.3%. For the compound `Cc1ccc(C(=O)C2=C(O)C(=O)N(Cc3cccnc3)C2c2cccc(Oc3ccccc3)c2)o1` (stereo not drawn) [CBK264619], the viability at 28.5 h, 10 µM turned out to be 96.3%. On to `CC(=O)Nc1ccc(S(=O)(=O)Oc2ccc(/C=C3\SC(=N)NC3=O)cc2Cl)cc1` [CBK265357], for which the viability at 28.5 h, 10 µM came to 100%. With `COc1ccccc1-c1cc(Nc2ccc(N3CCOCC3)cc2)ncn1` [CBK090933] the figure was 83.7%; with `Oc1ccc(-n2cc(-c3ccccc3C(F)(F)F)nn2)cc1` [CBK112971], 95.5%; with `COc1ccc(-c2cc(C(=O)Nc3ccc(S(N)(=O)=O)cc3)c3ccccc3n2)cc1OC` [CBK263635], 93.1%. With `O=C(NCc1ccco1)NC(=O)c1ccc(Cl)cc1` [CBK269461] the figure was 95.8%; with `CCOC(=O)c1cccc(-c2ccc(F)cc2F)n1` [CBK149245], 101%; with `O=C(c1cncnc1)N1CCC2(CCN(Cc3ccccc3)CC2)C1` [CBK136782], 101%. With `CCC(C)(C)Nc1cccnc1N(C)C1CCN(C(=O)c2cc3cc(N)ccc3[nH]2)CC1` [CBK016674] the figure was 80.3%; with `Nc1nc(N)c2nc(C3OCCO3)cnc2n1` [CBK027115], 114%. Regarding `CC1(C)NC(=O)N(CC(O)Cn2c3ccccc3c3ccccc32)C1=O` (stereo not drawn) [CBK304318], the viability at 28.5 h, 10 µM was determined as 86.8%. In the case of `Cc1cc(Cl)ccc1NC(=O)COC(=O)c1ccccc1I` [CBK265638], the viability at 28.5 h, 10 µM is 89.6%.

Turning to `O=C(CCc1cccnc1)Nc1ccc(Oc2ccccc2)cc1` [CBK295168], the viability at 28.5 h, 10 µM is 99.8%. Take `COc1ccccc1CN(CCCn1ccnc1)Cc1ccco1` [CBK283116]: the viability at 28.5 h, 10 µM is 111%. `COc1cc(F)cc(OC2CCNCC2)c1NC(=O)Cc1cn(C)c2ccccc12` [CBK050245T]: the viability at 28.5 h, 10 µM came out at 105%.

For the compound `O=C(NCc1ccc(OC2CCNCC2)cc1)c1cccs1` [CBK036353T], the viability at 28.5 h, 10 µM came to 89.8%. Regarding `CC(C)N(C(=O)N1CCC(c2cccnc2)CC1)C(C)C` [CBK283850], the viability at 28.5 h, 10 µM is 97.6%. `CC(=O)Nc1ccc(Cc2nc(C3CC3)no2)cc1` [CBK305197]: the viability at 28.5 h, 10 µM amounted to 92.1%. With `Cc1ccc(NC(=O)c2cnc(SCc3ccc(F)cc3)n(C)c2=O)cc1C` [CBK287674], the viability at 28.5 h, 10 µM was 90.5%. In the case of `CCOc1ccccc1NC(=O)NCCSCc1ccco1` [CBK057501], the viability at 28.5 h, 10 µM came out at 94.5%. `COC(=O)Cn1cc(CN2CC3CCCN3C[C@H]2C)c2ccccc21` (stereo partly drawn) [CBK285436]: the viability at 28.5 h, 10 µM worked out at 92.2%. In the case of `Cc1nc(C)c(CNC(=O)NC2CCCN(c3ccn(C)n3)C2=O)s1` (stereo not drawn) [CBK305457], the viability at 28.5 h, 10 µM was determined as 86%. On to `Cc1cccc(OC(C)C(=O)Nc2ccc(S(=O)(=O)N3CCOCC3)cc2)c1` (stereo not drawn) [CBK269609], for which the viability at 28.5 h, 10 µM was found to be 106%. For `O=C1CC(C(=O)Nc2ncccn2)C(c2ccccc2)O1` (stereo not drawn) [CBK265130], the viability at 28.5 h, 10 µM stood at 106%. With `CC(C)[C@H]1CN(Cc2ccco2)CCN1Cc1ccco1` [CBK284271], the viability at 28.5 h, 10 µM came out at 79.3%. In the case of `CN(C)CCN(C)c1cncc(-c2cccc3ccccc23)n1` [CBK065709], the viability at 28.5 h, 10 µM was determined as 106%. With `CC(C)[C@@H](CO)NC(=O)c1cnc(-c2cccc(C(F)(F)F)c2)c(-c2cccnc2)c1` [CBK037520] the figure was 112%.

`O=C(Nc1cncc(OC2CCNCC2)n1)c1cnc2ccccc2c1` [CBK036377T]: the viability at 28.5 h, 10 µM was 92.8%. In the case of `CO[C@@H](C(=O)Nc1cnc(-c2cccc(C)c2)c(-c2ccco2)n1)c1ccccc1` [CBK037613], the viability at 28.5 h, 10 µM amounted to 105%. `CCOCCCNc1nc2c(c(=O)[nH]c(=O)n2C)n1CCC(C)C` [CBK287968]: the viability at 28.5 h, 10 µM is 87.7%. On to `O=C(NCCOc1ccccc1Cl)NC(=O)C1CCN(CCOc2ccc(Br)cc2)CC1` [CBK034897], for which the viability at 28.5 h, 10 µM is 84.6%. `Nc1ncc(-c2ccco2)nc1NCc1ccco1` [CBK063682]: the viability at 28.5 h, 10 µM turned out to be 91.8%. With `Cc1cc(Cl)c(S(=O)(=O)Nc2cccnc2)cc1OCC(=O)NC1CCCCC1` [CBK266773], the viability at 28.5 h, 10 µM stood at 92.7%. In the case of `CC(C)NC(=O)Cn1nc(-c2cc3c(s2)CCC3)oc1=O` [CBK283801], the viability at 28.5 h, 10 µM worked out at 88.3%. For `Cc1c(C(=O)N2CCN(C3CCN(C)CC3)CC2)nnn1-c1cccc(C(F)(F)F)c1` [CBK149088], the viability at 28.5 h, 10 µM turned out to be 94.2%. In the case of `COc1cc(OC)c2c(c1)OC1(CCN(C(=O)c3cnc(C)cn3)CC1)CC2=O` [CBK156503], the viability at 28.5 h, 10 µM came out at 105%. Take `CN1CCCC1CCNC(=O)c1ccc(-c2ccoc2)nc1` (stereo not drawn) [CBK156255]: the viability at 28.5 h, 10 µM stood at 99.8%.

As for `COc1ccccc1N(CC(=O)Nc1c(C)cccc1C)S(=O)(=O)c1ccc(C)cc1` [CBK264810], the viability at 28.5 h, 10 µM was 96.5%. With `Cc1noc(C)c1S(=O)(=O)Nc1c(C(=O)Nc2ccc(F)cc2)[nH]c2ccccc12` [CBK050099] the figure was 119%; with `Cc1cc2nc(NC(=N)N)[nH]c2cc1C` [CBK003532], 93.5%; with `CCOc1ccccc1CNc1ccc(C2c3ccsc3CCN2C(=O)COC)cc1` (stereo not drawn) [CBK286461], 88.5%.

Regarding `CC(=O)Nc1ccc(CNc2ccc(Cl)cc2)cc1` [CBK012799], the viability at 28.5 h, 10 µM amounted to 104%. Turning to `CCCNc1nc(Cl)nc(NCc2cccnc2)n1` [CBK261995], the viability at 28.5 h, 10 µM stood at 89%.

Regarding `Cc1nnnn1-c1cc(NC(=O)NCCc2ccnn2C)ccc1F` [CBK306428], the viability at 28.5 h, 10 µM was 87.8%.

On to `N=C(N/N=C\c1ccncc1)N/N=C\c1ccncc1` [CBK263278C], for which the viability at 28.5 h, 10 µM was 94.1%. Consider `NC(=O)c1cccc(-n2ncc(-c3cccnc3)n2)c1` [CBK112806], for which the viability at 28.5 h, 10 µM was 81.6%. Regarding `CCCOC(=O)Cn1cnc2sc(C)c(C)c2c1=O` [CBK304371], the viability at 28.5 h, 10 µM came out at 88.9%. Under `CC(=O)Nc1cccc(C(=O)NCC(c2cccs2)N(C)C)c1` (stereo not drawn) [CBK304583] stands 86.7%; under `COc1ccc2oc(C(=O)NC(C)(C)CN3CCCCC3)cc2c1` [CBK282053], 93.8%.

`Cc1cc(Cl)cc(Cl)c1S(=O)(=O)Nc1nc(-c2cccc([N+](=O)[O-])c2)cs1` [CBK000902]: the viability at 28.5 h, 10 µM is 111%. For the compound `Cc1cc(C)n(C(C)C(=O)N(C)CCn2ccnc2C)n1` (stereo not drawn) [CBK281759], the viability at 28.5 h, 10 µM amounted to 88.1%.

Regarding `Cc1nccn1CC(=O)N1CCCC(C)(C(=O)NC2CCCC2)C1` (stereo not drawn) [CBK282210], the viability at 28.5 h, 10 µM came to 91.8%. On to `COc1ccccc1N1CCN(C(=O)N(CCN)CCC(C)c2ccccc2)CC1` (stereo not drawn) [CBK002137C], for which the viability at 28.5 h, 10 µM worked out at 88.7%. As for `CC(C(=O)Nc1ccc(S(N)(=O)=O)cc1)N(C)Cc1ccccc1F` (stereo not drawn) [CBK305840], the viability at 28.5 h, 10 µM stood at 105%. Consider `O=C(O)C1=CC(c2ccc(O)cc2)n2ncnc2N1` (stereo not drawn) [CBK286545], for which the viability at 28.5 h, 10 µM was determined as 88.7%. `O=C(c1ccccc1C(F)(F)F)N1CCC(n2c(=O)[nH]c3ccccc32)CC1` [CBK149706]: the viability at 28.5 h, 10 µM came to 97%.

Turning to `O=C(Nc1nccs1)c1cccc(Cl)c1Cl` [CBK058011], the viability at 28.5 h, 10 µM is 112%. Take `Cc1ccc(N(CC(=O)O)S(C)(=O)=O)cc1C` [CBK286978]: the viability at 28.5 h, 10 µM is 87.1%. Under `CC(C)(Oc1cccc2ccccc12)C(=O)O` [CBK012409] stands 94.5%; under `O=C1NC(=O)C(CC(=O)N2CCC(Cn3cncn3)(C3CCCCC3)CC2)N1` (stereo not drawn) [CBK136808], 94.3%. In the case of `COc1ccc(NC(=O)c2ccc(-c3ccc(Nc4ccc5c(c4)OCCO5)nc3)cc2)cc1` [CBK036815], the viability at 28.5 h, 10 µM is 88.7%. Consider `COc1ccc(-n2cc(-c3ccc(F)cc3)nn2)cc1OC` [CBK113110], for which the viability at 28.5 h, 10 µM stood at 89.8%.

On to `COC(=O)Cn1nnc(-c2ccccc2)n1` [CBK069215], for which the viability at 28.5 h, 10 µM stood at 84.8%. For the compound `O=S1(=O)CCCN1c1ccc2[nH]ncc2c1` [CBK010263], the viability at 28.5 h, 10 µM came out at 102%. With `CC(C)CN1CC(C(=O)N(C)CC2OCCc3ccccc32)CC1=O` (stereo not drawn) [CBK282093] the figure was 102%; with `COc1cccc(N2CCN(CC(CC(=O)Nc3ccccc3)C(=O)O)CC2)c1` (stereo not drawn) [CBK286813], 89.8%; with `Cc1noc(C)c1S(=O)(=O)Nc1cccc(C(=O)O)c1` [CBK038902], 102%. As to `COc1ccc(-c2cnc(NCC3CC3)c(C(=O)N(C)CCN(C)C)c2)cc1` [CBK076338], the viability at 28.5 h, 10 µM worked out at 90.5%. With `CC(/C(=N/O)c1ccccc1)C(O)c1ccccn1` (stereo not drawn) [CBK022993], the viability at 28.5 h, 10 µM is 83.3%. As to `O=C(NCCc1cccs1)Nc1cc(C(F)(F)F)cc(C(F)(F)F)c1` [CBK043718], the viability at 28.5 h, 10 µM worked out at 91.1%.

Take `O=C(CC1CC1)Nc1cc(-c2ccncc2)c[nH]c1=O` [CBK116585]: the viability at 28.5 h, 10 µM was found to be 91.9%.

In the case of `O=C(c1cccs1)N1CCCN(c2nccc(C(F)(F)F)n2)CC1` [CBK019390], the viability at 28.5 h, 10 µM is 89.4%.

As for `O=C(Nc1nc2c(F)cc(F)cc2s1)c1ccc(F)cc1` [CBK287617], the viability at 28.5 h, 10 µM is 101%. Turning to `COc1ccc(CCNC(=O)N2CCC(C(=O)O)CC2)cc1OC` [CBK161404], the viability at 28.5 h, 10 µM was determined as 110%. Regarding `O=C(NC(C(=O)N/N=C/c1coc2ccccc2c1=O)c1n[nH]c(=O)c2ccccc12)c1ccccc1` (stereo not drawn) [CBK262847], the viability at 28.5 h, 10 µM was determined as 95.3%.
